ED50 and inhibition data for ten molecules are collected here from ChEMBL document CHEMBL3244235, “Relationships between opiate receptor binding and analgetic properties of prodine-type compounds” (1977).

Activity calls are given as the source filed them. The rule behind the calls is not given here.

T1 sequence (P33533 whole entry, looked up): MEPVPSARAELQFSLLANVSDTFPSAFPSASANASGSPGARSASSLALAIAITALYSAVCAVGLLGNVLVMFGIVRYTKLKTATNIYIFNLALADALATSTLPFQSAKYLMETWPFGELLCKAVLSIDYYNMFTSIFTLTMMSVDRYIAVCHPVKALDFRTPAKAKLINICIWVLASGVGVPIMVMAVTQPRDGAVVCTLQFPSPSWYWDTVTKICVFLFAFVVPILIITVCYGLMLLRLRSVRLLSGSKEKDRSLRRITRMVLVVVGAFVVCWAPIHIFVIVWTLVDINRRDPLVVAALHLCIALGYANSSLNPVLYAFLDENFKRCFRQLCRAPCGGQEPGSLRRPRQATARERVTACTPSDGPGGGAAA
T1 sequence (P33535 whole entry, looked up): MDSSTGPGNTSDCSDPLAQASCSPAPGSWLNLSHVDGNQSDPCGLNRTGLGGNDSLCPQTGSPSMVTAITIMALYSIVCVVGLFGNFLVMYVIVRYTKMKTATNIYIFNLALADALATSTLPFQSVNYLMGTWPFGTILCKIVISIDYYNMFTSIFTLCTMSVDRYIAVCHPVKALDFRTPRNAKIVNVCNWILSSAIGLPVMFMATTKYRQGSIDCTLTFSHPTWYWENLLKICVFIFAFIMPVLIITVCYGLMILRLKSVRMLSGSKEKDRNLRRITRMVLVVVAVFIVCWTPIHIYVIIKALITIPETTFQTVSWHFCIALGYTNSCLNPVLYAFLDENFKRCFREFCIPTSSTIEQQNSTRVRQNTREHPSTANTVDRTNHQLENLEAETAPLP
T1 sequence (P34975 whole entry, looked up): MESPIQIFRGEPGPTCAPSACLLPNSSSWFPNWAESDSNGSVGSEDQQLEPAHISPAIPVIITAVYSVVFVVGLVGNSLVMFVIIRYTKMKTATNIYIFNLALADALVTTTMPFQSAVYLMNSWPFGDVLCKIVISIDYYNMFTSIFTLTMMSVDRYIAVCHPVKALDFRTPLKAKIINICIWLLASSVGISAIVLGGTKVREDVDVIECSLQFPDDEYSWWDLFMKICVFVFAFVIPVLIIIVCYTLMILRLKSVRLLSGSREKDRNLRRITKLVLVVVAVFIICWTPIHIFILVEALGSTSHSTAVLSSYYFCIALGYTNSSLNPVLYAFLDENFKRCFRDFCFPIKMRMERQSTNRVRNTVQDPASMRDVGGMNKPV

One assay has as its system Mus musculus. Briefly: Analgesic activity in sc dosed mouse by hot plate method. Format: functional.
The ED50 is the midpoint of the dose-response relation. Molecule `C=CCC1CN(C)CCC1(OC(=O)CC)c1ccccc1.Cl` (configuration not stated) showed an ED50 of 0.03 mg/kg.

`CCC(=O)O[C@]1(c2ccccc2)CCN(C)C[C@@H]1CC.Cl` (relative stereo) came in with a median effective dose (ED50) of 0.4 mg/kg.

In turn, `CCC(=O)O[C@]1(c2ccccc2)CCN(C)C[C@@H]1C.Cl` (relative stereo) returned a median effective dose (ED50) of 0.92 mg/kg.

As for `CCC(=O)O[C@]1(c2ccccc2)CCN(C)C[C@H]1C.Cl` (relative stereo), the ED50 worked out at 0.18 mg/kg.

As to `CCC(=O)O[C@]1(c2ccccc2)CCN(C)C[C@H]1CC.Cl` (relative stereo), the ED50 turned out to be 3.5 mg/kg.

`C=CC[C@H]1CN(C)CC[C@]1(OC(=O)CC)c1ccccc1.Cl` (relative stereo) gave an ED50 of 0.09 mg/kg.

`C=CC[C@@H]1CN(C)CC[C@]1(OC(=O)CC)c1ccccc1.Cl` (relative stereo) yielded an ED50 of 11.7 mg/kg.

`CCCCCC[C@H]1CN(C)CC[C@]1(OC(=O)CC)c1ccccc1.Cl` (relative stereo) yielded an ED50 of 80 mg/kg.

For `CCCCCC[C@@H]1CN(C)CC[C@]1(OC(=O)CC)c1ccccc1.Cl` (relative stereo), the ED50 was determined as 54.4 mg/kg.

On to `CN1CC[C@]23c4c5ccc(O)c4O[C@H]2[C@@H](O)C=C[C@H]3[C@H]1C5.Cl` [MORPHINE HYDROCHLORIDE], for which the median effective dose (ED50) is 1.2 mg/kg.

Another assay has as its target T1, Opioid receptor (Rattus norvegicus) (UniProt P33533+P34975+P33535). Briefly: Displacement of specific [3H]dihydromorphine from opiate receptor in rat brain homogenates at 10^-5 M after 10 mins by scintillation counting. Format: tissue-based.
With `CCCCCC[C@H]1CN(C)CC[C@]1(OC(=O)CC)c1ccccc1.Cl` (relative stereo), the inhibition result was “Active”.

The next assay has as its target T1, Opioid receptor (Rattus norvegicus). The experiment in a line: Displacement of nonspecific [3H]dihydromorphine from opiate receptor in rat brain homogenates at 10^-5 M after 10 mins by scintillation counting. Format: tissue-based.
As to `CCCCCC[C@H]1CN(C)CC[C@]1(OC(=O)CC)c1ccccc1.Cl` (relative stereo), the inhibition result is “Active”.
